According to the supplement of paper PMC10307832:

Columns and labels:
Assay in all cases: relative viability (nuclei count vs DMSO), 5 days (fraction); higher = more cells survive
Linifanib + Lapatinib = compound: Cc1ccc(F)c(NC(=O)Nc2ccc(-c3cccc4[nH]nc(N)c34)cc2)c1 [Linifanib] + CS(=O)(=O)CCNCc1ccc(-c2ccc3ncnc(Nc4ccc(OCc5cccc(F)c5)c(Cl)c4)c3c2)o1 [Lapatinib] (partner 2 µM)
Summary of the method: (§1)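 Values are medians from duplicate plates. Each reflects relative viability, defined as the nuclei count of treated wells over that of vehicle wells. Lung cancer cell lines in 1536-well plates were pin-tool dosed one day after seeding with one drug alone or with a fixed anchor-drug dose plus five library-drug doses (not always all listed) in √10 steps, then fixed, stained and imaged at 4× after 5 days.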

Linifanib + OSI-027 = compound: Cc1ccc(F)c(NC(=O)Nc2ccc(-c3cccc4[nH]nc(N)c34)cc2)c1 [Linifanib] + COc1cccc2cc(-c3nc([C@H]4CC[C@H](C(=O)O)CC4)n4ncnc(N)c34)[nH]c12 [OSI-027] (partner 0.5 µM)
Summary of the method: as §1

Linifanib + Bortezomib = compound: Cc1ccc(F)c(NC(=O)Nc2ccc(-c3cccc4[nH]nc(N)c34)cc2)c1 [Linifanib] + CC(C)C[C@H](NC(=O)[C@H](Cc1ccccc1)NC(=O)c1cnccn1)B(O)O [Bortezomib] (partner 0.002 µM)
Summary of the method: as §1

Linifanib + Dasatinib = compound: Cc1ccc(F)c(NC(=O)Nc2ccc(-c3cccc4[nH]nc(N)c34)cc2)c1 [Linifanib] + Cc1nc(Nc2ncc(C(=O)Nc3c(C)cccc3Cl)s2)cc(N2CCN(CCO)CC2)n1 [Dasatinib] (partner 0.075 µM)
Summary of the method: as §1

Linifanib + Pictilisib = compound: Cc1ccc(F)c(NC(=O)Nc2ccc(-c3cccc4[nH]nc(N)c34)cc2)c1 [Linifanib] + CS(=O)(=O)N1CCN(Cc2cc3nc(-c4cccc5[nH]ncc45)nc(N4CCOCC4)c3s2)CC1 [Pictilisib] (partner 1 µM)
Summary of the method: as §1

Linifanib + Foretinib = compound: Cc1ccc(F)c(NC(=O)Nc2ccc(-c3cccc4[nH]nc(N)c34)cc2)c1 [Linifanib] + COc1cc2c(Oc3ccc(NC(=O)C4(C(=O)Nc5ccc(F)cc5)CC4)cc3F)ccnc2cc1OCCCN1CCOCC1 [Foretinib] (partner 0.25 µM)
Summary of the method: as §1

| Cell Line | relative viability (Linifanib + Lapatinib; first compound 0.03162 µM) | relative viability (Linifanib + Lapatinib; first compound 0.1 µM) | relative viability (Linifanib + Lapatinib; first compound 0.3162 µM) | relative viability (Linifanib + OSI-027; first compound 0.03162 µM) | relative viability (Linifanib + OSI-027; first compound 0.1 µM) | relative viability (Linifanib + OSI-027; first compound 0.3162 µM) | relative viability (Linifanib + Bortezomib; first compound 0.03162 µM) | relative viability (Linifanib + Bortezomib; first compound 0.1 µM) | relative viability (Linifanib + Bortezomib; first compound 0.3162 µM) | relative viability (Linifanib + Dasatinib; first compound 0.03162 µM) | relative viability (Linifanib + Dasatinib; first compound 0.1 µM) | relative viability (Linifanib + Dasatinib; first compound 0.3162 µM) | relative viability (Linifanib + Pictilisib; first compound 0.03162 µM) | relative viability (Linifanib + Pictilisib; first compound 0.1 µM) | relative viability (Linifanib + Pictilisib; first compound 0.3162 µM) | relative viability (Linifanib + Foretinib; first compound 0.03162 µM) | relative viability (Linifanib + Foretinib; first compound 0.1 µM) | relative viability (Linifanib + Foretinib; first compound 0.3162 µM) |
| --- | --- | --- | --- | --- | --- | --- | --- | --- | --- | --- | --- | --- | --- | --- | --- | --- | --- | --- |
| NCI-H1651 | 0.981 | 0.88 | 0.817 | 0.624 | 0.8 | 0.829 | 0.967 | 0.934 | 0.895 | 0.499 | 0.393 | 0.398 | 0.591 | 0.582 | 0.355 | 0.774 | 1.04 | 0.66 |
| NCI-H2126 | 0.792 | 0.788 | 0.779 | 0.742 | 0.747 | 0.665 | 1.05 | 1.1 | 1.14 | 0.622 | 0.718 | 0.622 | 0.48 | 0.507 | 0.457 | 1.22 | 1.06 | 1.2 |
| LCLC-103H | – | – | – | 0.514 | 0.481 | 0.408 | 1.19 | 1.16 | 1.15 | 0.434 | 0.621 | 0.399 | 0.71 | 0.596 | 0.693 | 0.629 | 0.753 | 0.803 |
| NCI-H23 | 0.991 | 1.14 | 1.01 | 0.577 | 0.75 | 0.572 | 1.03 | 1.2 | 1.16 | 0.736 | 0.928 | 0.84 | 0.542 | 0.524 | 0.523 | 1.28 | 0.964 | 1.15 |
| EPLC-272H | 0.956 | 0.913 | 0.814 | 0.26 | 0.327 | 0.29 | 1.21 | 1.04 | 0.785 | 0.324 | 0.418 | 0.51 | 0.355 | 0.324 | 0.28 | 0.643 | 0.657 | 0.556 |
| NCI-H1975 | 0.898 | 1.11 | 0.874 | 0.675 | 0.753 | 0.706 | 0.504 | 0.376 | 0.389 | 0.396 | 0.367 | 0.344 | 0.298 | 0.3 | 0.367 | 0.892 | 1.01 | 1.02 |
| NCI-H2170 | 0.255 | 0.277 | 0.279 | 0.655 | 0.747 | 0.732 | – | – | – | 0.662 | 0.611 | 0.579 | 0.297 | 0.332 | 0.304 | 0.792 | 1.01 | 0.99 |
| NCI-H358 | 0.531 | 0.543 | 0.433 | 0.836 | 1.06 | 0.748 | – | – | – | 0.175 | 0.204 | 0.205 | 0.407 | 0.37 | 0.32 | 0.825 | 0.794 | 0.717 |
| PC-3 [JPC-3] | 0.482 | 0.413 | 0.496 | 0.702 | 0.771 | 0.659 | 0.728 | 0.805 | 0.77 | 1.04 | 1.01 | 0.972 | 0.743 | 0.786 | 0.687 | 1.05 | 0.973 | 0.993 |
| A-427 | 1.06 | 1.01 | 0.955 | 0.526 | 0.512 | 0.423 | 1.04 | 1.05 | 0.949 | 0.715 | 0.835 | 0.798 | 0.796 | 0.724 | 0.711 | 1.02 | 1.34 | 1.02 |
| LU99A | 1.07 | 1.06 | 1.05 | 0.323 | 0.326 | 0.338 | 1.13 | 1.16 | 1.21 | 0.547 | 0.66 | 0.488 | 0.317 | 0.349 | 0.325 | 0.856 | 0.973 | 0.826 |
| H3255 | 0.246 | 0.508 | 0.242 | 0.58 | 0.606 | 0.583 | 0.809 | 0.781 | 0.728 | 0.457 | 0.364 | 0.364 | 0.509 | 0.507 | 0.488 | 1 | 0.946 | 0.721 |
| NCI-H1437 | 0.957 | 0.801 | 0.77 | 0.881 | 0.895 | 0.908 | 0.644 | 0.688 | 0.491 | 0.375 | 0.407 | 0.378 | 0.529 | 0.495 | 0.471 | 1.27 | 1.25 | 1.19 |
| NCI-H1793 | 0.7 | 0.765 | 0.765 | 0.254 | 0.296 | 0.267 | – | – | – | 0.394 | 0.439 | 0.406 | 0.336 | 0.285 | 0.332 | 0.843 | 0.953 | 0.734 |
| NCI-H441 | – | – | – | 0.588 | 0.767 | 0.607 | 0.496 | 0.43 | 0.371 | 0.646 | 0.705 | 0.639 | 0.493 | 0.519 | 0.479 | 1.08 | 0.945 | 1.27 |
| NCI-H1395 | 0.986 | 0.982 | 1.14 | 0.611 | 0.756 | 0.573 | – | – | – | 0.3 | 0.394 | 0.405 | 0.676 | 0.715 | 0.525 | 0.967 | 1.05 | 0.998 |
| NCI-H2342 | – | – | – | 0.638 | 0.654 | 0.624 | – | – | – | 0.333 | 0.331 | 0.332 | – | – | – | 1.18 | 1.2 | 1.15 |
| ChaGo-K-1 | – | – | – | 0.584 | 0.602 | 0.673 | 0.946 | 1.18 | 0.926 | 0.721 | 0.727 | 0.558 | 0.697 | 0.783 | 0.741 | 1.09 | 0.935 | 0.951 |
| SW 900 | – | – | – | 0.507 | 0.808 | 0.47 | – | – | – | 0.824 | 0.548 | 0.578 | – | – | – | 0.925 | 0.987 | 0.666 |
